The IC50 is the concentration needed to halve the response being measured.

The structures appear in SMILES notation.

The target in one test is FTase (Homo sapiens, UniProt P49354+P49356). Nature of the test: FTase prenylation assay (partially purified FTase, recombinant H-ras, [3H] farnesyl pyrophosphate). In kind it is biochemical. Particulars: 3 μM recombinant H-ras, 440 nM [3H] FPP, 15 minutes at 37° C.
The next test concerns the target GGTase (Homo sapiens, UniProt P49354+P53609). The test is described as follows: GGTase prenylation assay (partially purified GGTase, recombinant H-ras 61 L CAIL, [3H] geranylgeranyl diphosphate). In kind it is biochemical. As to conditions: 5 μM recombinant H-ras (61 L, CAIL), 1 μM [3H] geranylgeranyl diphosphate.
For test [1], the system named is H-ras farnesylation in H-ras (61 L) transformed NIH3T3 fibroblasts. Nature of the test: Inhibition of H-ras farnesylation in whole cells (Western blot). As to conditions: treated 24 hours. In kind it is cell-based. On the procedure: The ability of compounds of the invention to inhibit H-ras farnesylation and rapl geranylgeranylation in whole cells was determined. H-ras (61 L) transformed NIH3T3 fibroblasts were generously provided by C. Der, Univ. N. Carolina. These fibroblasts were treated for 24 hours with 50 μM lovastatin (control) or the indicated concentrations of inhibitor. The cells were lysed in 1% NP-40, 5mM Tris-HCl (pH 8.0), 5mM EDTA, 0.1mM N-tosyl-L-phenylalanine chloromethyl ketone, 0.1mM N-tosyl-L-lysine chloromethyl ketone, and 1 mM phenylmethylsulfonyl fluoride. The lysate was centrifuged (15000×g, 5 minutes.) and the supernatant was used as a cell extract. Total protein was separated by SDS-PAGE in 15% acrylamnide gel. After transfer to IMMOBILON P™ membrane (Millipore), the blots were probed with LA069 mouse monoclonal antibody to H-ras (Quality Biotech), or rabbit polyclonal antibody to rap1/Krev (Santa Cruz Biotechnology). All Western blots were developed using ECL chemiluminescent reagents (Amersham).

In test [2] the test system is anchorage-independent cell growth. The test is described as follows: Soft agar, anchorage-independent cell growth (Table 2). Format: cell-based.
Test [3] relates to MIA PaCa-2 cells. The test is described as follows: Anchorage-independent growth of tumor cells in culture, compound 10 and paclitaxel. In kind it is cell-based. As to conditions: for number of colonies: 17 day incubation. The protocol: 4×10^3MIA PaCa-2 cells (ATCC CRL1420) were seeded on 24-well culture plates in 0.2 mL of 0.33 Noble agar in 10% fetal calf serum/RPMI1640 medium over 0.4 mL of 0.66% Noble agar in the same culture medium. The top agar layer was overlayed with 0.2 mL of 0.66% Noble agar in culture medium. The upper agar was covered with 0.2 mL of culture medium containing the indicated concentration of paclitaxel and the indicated concentration of compound 10.
At the end of a 17 day incubation, 0.2 mL of 3.3 mg/mL 3-[4,5-dimethylthiazol-2-yl]-2,5-diphenyltetrazolium bromide in phosphate buffered saline was added and incubated for 1 hour. The number of stained colonies was analyzed with an image analyzer computer program.

The test system of test [4] is MIA PaCa-2 cells. The test is described as follows: In vivo tumor model, subcutaneous MIA PaCa-2 tumors in nude mice. Details: species or system nude mice (BALB/c-nu/nu). The protocol:
5×10^6 MIA PaCa-2 cells in Hank's balanced salt solution were injected subcutaneously into the flanks of 6 to 8 week old female nude mice (BALB/c-nu/nu) at day 1. […] Compound 10 and paclitaxel were administered intravenously once a day for 5 days from day 6. Tumor volume was measured on the days indicated. Tumor volume was calculated according to the equation: tumor volume (mm^3)=(length×width^2)/2. The results are shown in FIG. 1, where the bars indicated standard deviation. The n value for the assays is 5.

Where [5] appears, read: paclitaxel alone 6.25 mg/kg/day intravenously once a day for 5 days from day 6.

As for `CSCCC(NC(=O)c1cc(CC=CC(N)CS)ccc1C)C(=O)O` (stereo not shown), the IC50 at FTase amounted to 1 nM; on GGTase, 2170 nM.

`CCc1ccc(CC=CC(N)CS)cc1C(=O)NC(CCSC)C(=O)O` (stereo not shown): the IC50 on FTase was found to be 9 nM; at GGTase, 420 nM.

In the case of `CSCCC(NC(=O)c1cc(CC=CC(N)CS)ccc1C(C)C)C(=O)O` (stereo not shown), the IC50 at FTase was 23 nM; at GGTase it was 450 nM.

As for `CSCCC(NC(=O)c1cc(CCCC(N)CS)ccc1C(C)C)C(=O)O` (stereo not shown), the figures for the IC50 at FTase and on GGTase were 8 nM and 680 nM, respectively.

Turning to `COC(=O)C(CCSC)NC(=O)c1cc(CC=CC(N)CS)ccc1C` (stereo not shown), the IC50 stood at 300 nM on FTase and 1600 nM at GGTase.

Take `CCc1ccc(CC=CC(N)CS)cc1C(=O)NC(CCSC)C(=O)OC` (stereo not shown): the IC50 at FTase came to 560 nM; on GGTase, 1840 nM.

As for `COC(=O)C(CCSC)NC(=O)c1cc(CC=CC(N)CS)ccc1C(C)C` (stereo not shown), the IC50 was found to be 80 nM on FTase and 3190 nM on GGTase.

For `COC(=O)C(CCSC)NC(=O)c1cc(CCCC(N)CS)ccc1C(C)C` (stereo not shown), the IC50 at FTase is 73 nM; on GGTase, 4440 nM.

Regarding `CSCCC(NC(=O)c1cc(CCCC(N)CS)ccc1C(C)C)C(=O)NCc1ccco1` (stereo not shown), the IC50 on FTase came out at 67 nM; at GGTase it was 4430 nM.

Turning to `CSCC[C@H](NC(=O)c1cc(C/C=C/C(N)CS)ccc1C)C(=O)O` (stereo partly shown), the figures for the IC50 in test [1] and in test [2] were 4000 nM and 9000 nM, respectively.

For `CCc1ccc(C/C=C/C(N)CS)cc1C(=O)N[C@@H](CCSC)C(=O)O` (stereo partly shown), the IC50 in test [1] worked out at 360 nM; in test [2], 950 nM.

Regarding `CSCC[C@H](NC(=O)c1cc(C/C=C/C(N)CS)ccc1C(C)C)C(=O)O` (stereo partly shown), the values for the IC50 in test [1] and in test [2] were 430 nM and 160 nM, respectively.

For `CSCC[C@H](NC(=O)c1cc(CCCC(N)CS)ccc1C(C)C)C(=O)O` (stereo partly shown), the figures for the IC50 in test [1] and in test [2] were 390 nM and 150 nM, respectively.

Regarding `COC(=O)[C@H](CCSC)NC(=O)c1cc(C/C=C/C(N)CS)ccc1C` (stereo partly shown), the IC50 was determined as 120 nM in test [1] and 75 nM in test [2].

Take `CCc1ccc(C/C=C/C(N)CS)cc1C(=O)N[C@@H](CCSC)C(=O)OC` (stereo partly shown): the results for the IC50 in test [1] and in test [2] were 56 nM and 13 nM, respectively.

Turning to `COC(=O)[C@H](CCSC)NC(=O)c1cc(C/C=C/C(N)CS)ccc1C(C)C` (stereo partly shown), the IC50 in test [1] was 22 nM; in test [2], 11 nM.

As for `COC(=O)[C@H](CCSC)NC(=O)c1cc(CCCC(N)CS)ccc1C(C)C` (stereo partly shown), the IC50 was 28 nM in test [1] and 19 nM in test [2].

As for `CSCC[C@H](NC(=O)c1cc(CCCC(N)CS)ccc1C(C)C)C(=O)NCc1ccco1` (stereo partly shown), the IC50 in test [1] came out at 200 nM; in test [2], 300 nM.

As to `COC(=O)[C@H](CCSC)NC(=O)c1cc(CCC[C@@H](N)CS)ccc1C(C)C.Cl` [Compound 10], the number of colonies in the test on MIA PaCa-2 cells [3] (compound 10 3.13 nM + paclitaxel 0.63 nM) came to 255; in the test on MIA PaCa-2 cells [3] (compound 10 3.13 nM + paclitaxel 1.25 nM), 204; in the test with MIA PaCa-2 cells [3] (compound 10 3.13 nM + paclitaxel 2.5 nM), 64; in the test on MIA PaCa-2 cells [3] (compound 10 3.13 nM + paclitaxel 5 nM) it was 8; in the test on MIA PaCa-2 cells [3] (compound 10 3.13 nM, paclitaxel 0 nM), 271; in the test with MIA PaCa-2 cells [3] (compound 10 6.25 nM + paclitaxel 0.63 nM) it was 214. Besides, the number of colonies with MIA PaCa-2 cells [3] (compound 10 6.25 nM + paclitaxel 1.25 nM) stood at 168; with MIA PaCa-2 cells [3] (compound 10 6.25 nM + paclitaxel 2.5 nM), 36; in the test on MIA PaCa-2 cells [3] (compound 10 6.25 nM + paclitaxel 5 nM), 4; with MIA PaCa-2 cells [3] (compound 10 6.25 nM, paclitaxel 0 nM), 210; in the test with MIA PaCa-2 cells [3] (compound 10 12.5 nM + paclitaxel 0.63 nM), 203; in the test with MIA PaCa-2 cells [3] (compound 10 12.5 nM + paclitaxel 1.25 nM), 148. Also, the number of colonies is on record as 22 in the test on MIA PaCa-2 cells [3] (compound 10 12.5 nM + paclitaxel 2.5 nM); 1 with MIA PaCa-2 cells [3] (compound 10 12.5 nM + paclitaxel 5 nM); 189 in the test on MIA PaCa-2 cells [3] (compound 10 12.5 nM, paclitaxel 0 nM); 173 in the test on MIA PaCa-2 cells [3] (compound 10 25 nM + paclitaxel 0.63 nM); 124 in the test on MIA PaCa-2 cells [3] (compound 10 25 nM + paclitaxel 1.25 nM); 16 in the test on MIA PaCa-2 cells [3] (compound 10 25 nM + paclitaxel 2.5 nM). Also, the number of colonies was 1 in the test on MIA PaCa-2 cells [3] (compound 10 25 nM + paclitaxel 5 nM); 161 in the test with MIA PaCa-2 cells [3] (compound 10 25 nM, paclitaxel 0 nM); 119 in the test with MIA PaCa-2 cells [3] (compound 10 50 nM + paclitaxel 0.63 nM); 74 with MIA PaCa-2 cells [3] (compound 10 50 nM + paclitaxel 1.25 nM); 0 in the test on MIA PaCa-2 cells [3] (compound 10 50 nM + paclitaxel 2.5 nM); 0 in the test with MIA PaCa-2 cells [3] (compound 10 50 nM + paclitaxel 5 nM). Also, the number of colonies in the test with MIA PaCa-2 cells [3] (compound 10 50 nM, paclitaxel 0 nM) is 97; in the test on MIA PaCa-2 cells [3] (compound 10 100 nM + paclitaxel 0.63 nM), 72; with MIA PaCa-2 cells [3] (compound 10 100 nM + paclitaxel 1.25 nM), 26; in the test on MIA PaCa-2 cells [3] (compound 10 100 nM + paclitaxel 2.5 nM) it was 0; in the test with MIA PaCa-2 cells [3] (compound 10 100 nM + paclitaxel 5 nM), 0; in the test on MIA PaCa-2 cells [3] (compound 10 100 nM, paclitaxel 0 nM) it was 64. The number of colonies with MIA PaCa-2 cells [3] (compound 10 200 nM + paclitaxel 0.63 nM) worked out at 30; in the test with MIA PaCa-2 cells [3] (compound 10 200 nM + paclitaxel 1.25 nM), 11; with MIA PaCa-2 cells [3] (compound 10 200 nM + paclitaxel 2.5 nM) it was 0; with MIA PaCa-2 cells [3] (compound 10 200 nM + paclitaxel 5 nM), 0; in the test with MIA PaCa-2 cells [3] (compound 10 200 nM, paclitaxel 0 nM), 23; in the test on MIA PaCa-2 cells [3] (compound 10 400 nM + paclitaxel 0.63 nM) it was 6. Further, the number of colonies in the test with MIA PaCa-2 cells [3] (compound 10 400 nM + paclitaxel 1.25 nM) was found to be 1; in the test with MIA PaCa-2 cells [3] (compound 10 400 nM + paclitaxel 2.5 nM) it was 0; in the test on MIA PaCa-2 cells [3] (compound 10 400 nM + paclitaxel 5 nM) it was 0; in the test on MIA PaCa-2 cells [3] (compound 10 400 nM, paclitaxel 0 nM), 3. For the same compound, the interaction with paclitaxel entry in the test on MIA PaCa-2 cells [3] (compound 10 at 3.13 to 200 nM with paclitaxel 2.5 to 5 nM) is “synergistic”; in the test on MIA PaCa-2 cells [3] (compound 10 at 100 to 200 nM with 1.25 nM paclitaxel) it was “synergistically tumoricidal”. For the same compound, in the test with MIA PaCa-2 cells [4] (compound 10 25 mg/kg/day plus paclitaxel 6.25 mg/kg/day intravenously once a day for 5 days from day 6, by 20 days after tumor cell implantation), the tumor regression result was “all tumors in all mice had completely regressed”.

Turning to `CC(=O)O[C@H]1C(=O)[C@@]2(C)[C@H]([C@H](OC(=O)c3ccccc3)[C@]3(O)C[C@H](OC(=O)[C@H](O)[C@@H](NC(=O)c4ccccc4)c4ccccc4)C(C)=C1C3(C)C)[C@]1(OC(C)=O)CO[C@@H]1C[C@@H]2O` [Paclitaxel, paclitaxel, reference compound], the number of colonies in the test with MIA PaCa-2 cells [3] (paclitaxel 0.63 nM, compound 10 0 nM) came to 235; with MIA PaCa-2 cells [3] (paclitaxel 1.25 nM, compound 10 0 nM), 234; with MIA PaCa-2 cells [3] (paclitaxel 2.5 nM, compound 10 0 nM) it was 172; with MIA PaCa-2 cells [3] (paclitaxel 5 nM, compound 10 0 nM), 48. Besides, in the test on MIA PaCa-2 cells [4] (setting [5]), the tumor growth entry is “inhibited tumor growth”. Moreover, in the test with MIA PaCa-2 cells [4] (setting [5]), the tumor regression entry is given as “no tumor regression ever occurred”.

The values are drawn from patent US6486202B1, “Inhibitors of isoprenyl transferase” (Eisai Company, Limited, priority 2001, dated 2002).
